Where two headings read alike, the source gives them in different places.
Experiments:
[1] = Cytotoxicity MTT assay, MDA-MB-435; format: cell-based, human; settings: human, MDA-MB-435 breast cancer cells; MDA-MB-435, Table 5
Text: (§1) Cell Culture. Human breast cancer cells (MCF-7, αvβ3—, overexpressed wild-type p53, ER+; MDA-MB 468, p53 mutant, ER+; and MDA-MB-435, αvβ3+, p53 mutant, ER−) and non-small cell lung cancer cells H1975 were obtained from the American Type Cell Culture (Rockville, Md. Q4). The HEY human ovarian carcinoma cell line naturally resistant to cisplatin (CDDP) was kindly provided by Dr. Dubeau (University of Southern California Norris Cancer Center). Cells were maintained as monolayer cultures in RPMI 1640 supplemented with 10% fetal bovine serum (Gemini-Bioproducts, Woodland, Calif.) and 2 mmol/L L-glutamine at 37° C. in a humidified atmosphere of 5% CO2. To remove the adherent cells from the flask for passaging and counting, cells were washed with PBS without calcium or magnesium, incubated with a small volume of 0.25% trypsin-EDTA solution (Sigma, St. Louis, Mo.) for 5 to 10 minutes, and washed with culture medium and centrifuged. All experiments were done using cells in exponential cell growth.
(§2) Cytotoxicity Assay. Cytotoxicity was assessed by 3-(4,5-dimethylthiazol-2-yl)-2,5-diphenyltetrazolium bromide (MTT) assay as previously described.^41, 54 Briefly, cells were seeded in 96-well microtiter plates and allowed to attach. Cells were subsequently treated with a continuous exposure to the corresponding drug for 72 hours. An MTT solution (at a final concentration of 0.5 mg/mL) was added to each well and cells were incubated for 4 hours at 37° C. After removal of the medium, DMSO was added and the absorbance was read at 570 nm. All assays were done in triplicate. The IC50 was then determined for each drug from a plot of log (drug concentration) versus percentage of cell kill.
(§3) Cytotoxicity of Selected Compounds in a Panel of Cancer Cell lines. Initially, we tested all compounds in two breast cancer cell lines MDA-MB-435 and MCF7 with high and low αvβ3 expression as well as in HEY ovarian cancer cell line naturally resistant to cisplatin. […] We observed a remarkable specificity for some of the compounds against these cells. […] Considering the fact that αvβ3 mediates migration, attachment and apoptosis of cancer cells, the combination of these novel high affinity antagonists with conventional cytotoxic drugs should show improved therapeutic benefits without additional toxicity.
(§4) NVX-188 was tested for cytotoxicity by MTT assays in two breast cancer cell lines, MDA-MB-435 with high αvβ3 integrin expression and MCF7 with low αvβ3 integrin expression, and an ovarian cancer cell line, HEY, which was used to test for cell growth inhibition evidence. NVX-188 was further evaluated in a lung cancer cell line, NCI-H1975, and a mouse fibroblast, NIH3T3. NVX-188 was not cytotoxic at the highest dose level tested (20 uM).

[2] = test system: MDA-MB-435 breast cancer cell line; experiment: Cytotoxicity MTT assay, MDA-MB-435; format: cell-based, human; settings: for inhibition at 20 µM: Homo sapiens, MDA-MB-435, 72 h MTT, read-out: % inhibition of cell growth at 20 μM, 435
Text: as §1, §2, §3, §4

[3] = target: T1, αvβ3 integrin (Homo sapiens, UniProt P05106+P06756); experiment: Receptor binding assay, competitive binding with 125I-labeled echistatin on the surface of NCI-H1975 cells; settings: for IC50 / αvβ3 binding affinity (in words): 125I-echistatin competition, NCI-H1975 cells; for fold higher affinity than the parent compound AV26: ratio of αvβ3 binding IC50 to AV26
T1 construct: endogenous in cells; host or cells: NCI-H1975 cells (non-small cell lung cancer), whole cells in suspension
Protocol: Receptor Binding Assay. […] 96-Well multiscreen DV plate (filter pore size: 0.65 μm, Millipore, Billerica, Mass.) was incubated with ^125I-echistatin (50,000 cpm/well) in the presence of increasing concentrations of αvβ3 antagonists. The total incubation volume was adjusted to 200 μL. After the cells were incubated for 3 h at room temperature, the plate was filtered through multiscreen vacuum manifold and washed twice with cold binding buffer. The hydrophilic PVDF filters were collected, and the radioactivity was determined using NaI(Tl) gamma counter (Packard, Meriden, Conn.). The best-fit IC50 values were calculated by fitting the data by nonlinear regression using GraphPad Prism (GraphPad Software, Inc., San Diego, Calif.). Experiments were carried out with triplicate samples.
αvβ3 Binding. Receptor binding affinity of all compounds on the surface of non-small cell lung cancer NCI-H1975 cells was determined in competitive binding experiments using ^125I-labeled echistatin as radioligand and the results are presented in Table 3. […] These compounds represent a novel set of antagonists with diverse structural scaffolds. […] This is an important feature considering the highly electrostatic nature of the RGD peptide binding region of αvβ3. The RGD peptide forms strong electrostatic interactions through its two charged ends with αvβ3 in the αvβ3-cyclic RGD peptide complex crystal structure. Compounds AV3, AV27, and AV32 broadly fall into a RGD mimetic antagonist category, since they have a carboxylate group or amine/amide group, at either ends that can establish similar electrostatic interactions with αvβ3. Additionally, presence of several hydrophilic functional groups on these compounds favors their interaction with the highly electrostatic region of the RGD binding site of αvβ3. Given these interesting structural features, we tested additional structurally close analogues of AV27 and AV32. However, substructure search queries using the core scaffolds of these compounds in our in-house databases yield no close analogues. Structure-activity studies around the core scaffolds of these two compounds might be an alternative option to further optimize their binding affinity towards αvβ3. […] We carried out a limited structure-activity relationship (SAR) analysis on compound AV26 by testing compounds AV34-AV38 in our binding assay (Table 3). The substructure search using the core scaffold of AV26 as a search query retrieved few compounds from our in-house database of 359,224 compounds. The analogues AV34-AV38 were purchased from Chemical Diversity (San Diego, Calif.) and screened for their αvβ3 binding affinity. […] Studies are also underway to selectively deliver cytotoxic agents such as paclitaxel to αvβ3 overexpressing cancers through covalent conjugation.
Receptor binding affinity of NVX-188 was determined through a competitive binding experiment using ^125I-radiolabeled echistatin on NCI-H1975 cells. Increasing concentrations of NVX-188 were added with a fixed amount of echistatin to determine the concentration of NVX-188 that prevents 50% of the echistatin from binding to αvβ3 integrin on the cell surface (i.e., IC50).

[4] = test system: MCF7 breast cancer cell line; experiment: Cytotoxicity MTT assay, MCF7; format: cell-based, human; settings: for inhibition at 20 µM: Homo sapiens, MCF7, 72 h MTT, read-out: % inhibition of cell growth at 20 μM, MCF7
Text: as §1, §2, §3, §4

[5] = Cytotoxicity MTT assay, MCF7; format: cell-based, human; settings: human, MCF-7 breast cancer cells; MCF-7, Table 5
Text: as §1, §2, §3, §4

[6] = test system: panel of cancer cell lines; experiment: Cytotoxicity MTT assay, statements on the whole panel of cell lines; format: cell-based; settings: for cytotoxicity (in words): MTT, panel of cell lines, highest dose tested 20 uM; for specificity of cytotoxicity among the cell lines (in words): five cell lines of Table 5
Protocol: as §2, §3, §4

[7] = Cytotoxicity MTT assay, NCI-H1975; format: cell-based, human; settings: human, NCI-H1975 non-small cell lung cancer cells; NCI-H1975, Table 5
Text: as §1, §2, §3, §4

[8] = Cytotoxicity MTT assay, NIH3T3; format: cell-based, mouse; settings: mouse, NIH3T3 fibroblasts; NIH3T3, Table 5
Protocol: as §2, §3, §4

[9] = Cytotoxicity MTT assay, HEY; format: cell-based, human; settings: human, HEY ovarian carcinoma cells; HEY, Table 5
Text: as §1, §2, §3, §4

[10] = test system: HEY ovarian cancer cell line; experiment: Cytotoxicity MTT assay, HEY; format: cell-based, human; settings: for inhibition at 20 µM: Homo sapiens, HEY, 72 h MTT, read-out: % inhibition of cell growth at 20 μM, HEY
Text: as §1, §2, §3, §4

[11] = test system: NCI-H1975 lung cancer cell-line; experiment: Cytotoxicity MTT assay, NCI-H1975; format: cell-based, human; settings: Table B
Text: as §1, §2, §3, §4

[12] = test system: NIH3T3 mouse fibroblast; experiment: Cytotoxicity MTT assay, NIH3T3; format: cell-based; settings: Table B
Protocol: as §2, §3, §4

[13] = read-out: αvβ3 binding affinity (IC50)

Question: Which IC50 at 72 h [1] does the source give for `CCOc1cc(/C=C2\S/C(=N/c3ccc(C(=O)O)cc3)N(C)C2=O)ccc1O` [AV26] here?
Answer: 0.34 ± 0.06 µM

Question: What about the inhibition at 20 µM [2] of the same compound?
Answer: 94%

Question: What about the “fold selectivity for MDA-MB-435 cells as compared to the HEY cells” value ([2]; cytotoxicity IC50 ratio) of the same compound?
Answer: ~40 fold

Question: What about the “fold selectivity for MDA-MB-435 cells as compared to the MCF7, NIH3T3, and CRL5908 cells” value ([2]; cytotoxicity IC50 ratio) of the same compound?
Answer: more than 60 fold

Question: What about the IC50 [3, 13] of the same compound?
Answer: 240000 pM

Question: And the inhibition at 20 µM [4]?
Answer: 37%

Question: What about the IC50 at 72 h [5] of the same compound?
Answer: > 20 µM

Question: And the “cytotoxicity (in words)” value [6]?
Answer: considerable cytotoxicity in a breast cancer cell line

Question: What about the IC50 at 72 h [7] of the same compound?
Answer: > 20 µM

Question: What about the IC50 at 72 h [8] of the same compound?
Answer: > 20 µM

Question: And the IC50 at 72 h [9]?
Answer: 13 ± 8 µM

Question: What about the inhibition at 20 µM [10] of the same compound?
Answer: 51%

Question: Which results are given for `O=C(O)c1cccc(-c2ccc(/C=N/Nc3nc4nonc4nc3Nc3ccc(F)cc3)o2)c1` [AV30]?
Answer: IC50 at 72 h [1]: 8 ± 0.5 µM; inhibition at 20 µM [2]: 71%; inhibition at 20 µM [4]: 52%; IC50 at 72 h [5]: 19 ± 4 µM; specificity of cytotoxicity among the cell lines (in words) [6]: a profile very similar in MDA-MB-435, HEY, and NIH3T3 cells, but was significantly less active against MCF-7 and NCI-H1975 cells; IC50 at 72 h [7]: > 20 µM; IC50 at 72 h [8]: 13 ± 3 µM; IC50 at 72 h [9]: 7 ± 0.42 µM; inhibition at 20 µM [10]: 90%

Question: For `CS(=O)(=O)Nc1ccc(C2=NN(C(=O)CCCC(=O)O)C(c3ccco3)C2)cc1` (centres unmarked) [AV32], which IC50 at 72 h [1] is on record?
Answer: > 20 µM

Question: What about the inhibition at 20 µM [2] of the same compound?
Answer: 0%

Question: And the IC50 [3, 13]?
Answer: 605000 pM

Question: And the inhibition at 20 µM [4]?
Answer: 26%

Question: What about the IC50 at 72 h [5] of the same compound?
Answer: > 20 µM

Question: And the IC50 at 72 h [7]?
Answer: > 20 µM

Question: What about the IC50 at 72 h [8] of the same compound?
Answer: > 20 µM

Question: And the IC50 at 72 h [9]?
Answer: > 20 µM

Question: And the inhibition at 20 µM [10]?
Answer: 18%

Question: For `CN(C)c1ccc(/C=C2\SC(=Nc3ccc(O)cc3)NC2=O)cc1` [AV34], which IC50 at 72 h [1] is on record?
Answer: 2.8 ± 0.01 µM

Question: What about the inhibition at 20 µM [2] of the same compound?
Answer: 65%

Question: And the inhibition at 20 µM [4]?
Answer: 31%

Question: And the IC50 at 72 h [5]?
Answer: > 20 µM

Question: And the “specificity of cytotoxicity among the cell lines (in words)” value [6]?
Answer: A similar trend, but smaller magnitude

Question: And the IC50 at 72 h [9]?
Answer: > 20 µM

Question: And the inhibition at 20 µM [10]?
Answer: 25%

Question: Which results are given for `CCOc1ccc(/N=C2/S/C(=C\c3ccc(N(C)C)cc3)C(=O)N2CC)cc1` [AV35]?
Answer: IC50 at 72 h [1]: > 20 µM; inhibition at 20 µM [2]: 26%; IC50 [3, 13]: 24000 pM; fold higher affinity than the parent compound AV26 [3]: 10 fold; inhibition at 20 µM [4]: 36%; IC50 at 72 h [5]: > 20 µM; IC50 at 72 h [7]: > 20 µM; IC50 at 72 h [8]: > 20 µM; IC50 at 72 h [9]: > 20 µM; inhibition at 20 µM [10]: 17%

Question: Which results are given for `COc1cc(Cl)c(/C=C2\S/C(=N/c3cccc(C(=O)O)c3)N(C)C2=O)cc1OC` [AV38]?
Answer: IC50 at 72 h [1]: > 20 µM; inhibition at 20 µM [2]: 0%; IC50 ([2]; Table B): > 20 µM; αvβ3 binding affinity (in words) [3]: high-affinity binding characteristics at picomolar concentrations; αvβ3 binding affinity (in words) ([3]; listed as NVX-188): active at picomolar concentrations; IC50 ([3]; same value restated in pM, read-out: αvβ3 integrin binding affinity (IC50)): 30 pM; fold higher affinity than the parent compound AV26 [3]: 800 fold; inhibition at 20 µM [4]: 18%; IC50 ([4]; Table B): > 20 µM; IC50 at 72 h [5]: > 20 µM; cytotoxicity (in words) [6]: not cytotoxic; IC50 at 72 h [7]: > 20 µM; IC50 [11]: > 20 µM; IC50 at 72 h [8]: > 20 µM; IC50 [12]: > 20 µM; IC50 at 72 h [9]: > 20 µM; inhibition at 20 µM [10]: 0%; IC50 ([10]; Table B): > 20 µM
